One may read the EC50 as the concentration at which the effect is half-maximal. The term melting point denotes the temperature, or range, at which the solid turns liquid.

Results on twelve compounds are retold here after article PMC9919513, “A Practical Approach to Bicyclic Carbamoyl Pyridones with Application to the Synthesis of HIV-1 Integrase Strand Transfer Inhibitors” (Molecules, 2023).

Each structure is given as a SMILES string. Where two headings read alike, the source gives them in different places.

In series [1] the test system is HIV-1 vectors that carry WT IN. Briefly: Single-round HIV-1 replication antiviral assay, wild-type IN. It is filed as cell-based. The following applies: for Ratio of the antiviral potencies after and before hydrogenation (WT): EC50 of saturated 7 over EC50 of unsaturated 6, WT IN; for EC50: 48 h. On the procedure: The bicyclic metal chelating carbamoyl pyridone moiety is common to second-generation tricyclic INSTIs (3, 4, and 5, Figure 1). Analogs of the current study are simplified analogs that lack a third ring. […] The halogen substitution pattern of the benzylamide moiety can affect inhibitory potencies of INSTIs. We determined the antiviral potencies of our compounds in single round HIV-1 replication assays using viral constructs with wild-type IN [31]. Cytotoxicities were determined as previously described. […] In general, the potencies of bicyclic analogs 6 having an unsaturated bond at the C4 position were insensitive to differences in N-methyl substituents. […] Analogs 6g and 6h represent simplified analogs of DTG (3) and CAB (5), respectively, in which the third ring (C-ring) is opened and having doble bond in B-ring, but lacking α-methyl stereochemistry.
Human embryonic kidney cell culture cell line 293 was acquired from the American Type Culture Collection (ATCC). The human osteosarcoma cell line, HOS, was obtained from Dr. Richard Schwartz (Michigan State University, East Lansing, MI, USA) and grown in Dulbecco’s modified Eagle’s medium (Invitrogen, Carlsbad, CA, USA) supplemented with 5% (v/v) fetal bovine serum, 5% newborn calf serum, and penicillin (50 units/mL) plus streptomycin (50 µg/mL; Quality Biological, Gaithersburg, MD, USA). The transfection vector, pNLNgoMIVR-ΔLUC was made from pNLNgoMIVR-ΔEnv.HSA by removing the HSA reporter gene and replacing it with a luciferase reporter gene between the NotI and XhoI restriction sites. To produce the new IN mutant S230N used in this study, the IN open reading frame was removed from pNLNgoMIVR-ΔENV.LUC by digestion with KpnI and SalI, and the resulting fragment was inserted between the KpnI and SalI sites of pBluescript KS+. Using that construct as the wild-type template, we prepared the following HIV-1 IN mutant S230N using the QuikChange II XL site-directed mutagenesis kit (Agilent Technologies, Santa Clara, CA, USA) protocol. The following sense oligonucleotides were used with matching cognate antisense oligonucleotides (not shown) (Integrated DNA Technologies, Coralville, IA, USA) in the mutagenesis: S230N 5′-[…]-3′. The DNA sequence of the IN mutant S230N construct was verified independently by DNA sequence determination. The mutated IN coding sequences from pBluescript KS+ were then subcloned into pNLNgoMIVR-ΔEnv.LUC (between the KpnI and SalI sites) to produce mutant HIV-1 constructs, which were also checked by DNA sequencing. […]. On the day prior to transfection, 293 cells were plated on 100 mm diameter dishes at a density of 1.5 × 10^6 cells per plate. Next, 293 cells were transfected with 16 µg of pNLNgoMIVR^-ΔLUC and 4 µg of pHCMV-g (obtained from Dr. Jane Burns, University of California, San Diego) using the calcium phosphate method. At approximately 6 h after the calcium phosphate precipitate was added, 293 cells were washed twice with phosphate-buffered saline (PBS) and incubated with fresh media for 48 h. The virus-containing supernatants were then harvested, clarified by low-speed centrifugation, filtrated, and diluted for preparation in antiviral infection assays. On the day prior to the screen, HOS cells were seeded in a 96-well luminescence cell culture plate at a density of 4000 cells in 100 µL per well. On the day of the screen for cellular cytotoxicity determination, cells were treated with compounds from a concentration range of 250 µM to 0.05 µM and then incubated at 37 °C for 48 h. On the day of the screen for antiviral activity infection assays, cells were treated with compounds from a concentration range of 5 µM to 0.0001 µM using 11 serial dilutions and then incubated at 37 °C for 3 h. After compound incorporation and activation in the cell, 100 µL of virus-stock (WT or mutant) diluted to achieve a luciferase signal between 0.2 and 1.5 Relative Luciferase Units (RLUs) was added to each well and further incubated at 37 °C for 48 h. […]

A further series is described as follows: in vitro. It is filed as cell-based. Particulars: human, HOS cells. On the procedure: Human embryonic kidney cell culture cell line 293 was acquired from the American Type Culture Collection (ATCC). The human osteosarcoma cell line, HOS, was obtained from Dr. Richard Schwartz (Michigan State University, East Lansing, MI, USA) and grown in Dulbecco’s modified Eagle’s medium (Invitrogen, Carlsbad, CA, USA) supplemented with 5% (v/v) fetal bovine serum, 5% newborn calf serum, and penicillin (50 units/mL) plus streptomycin (50 µg/mL; Quality Biological, Gaithersburg, MD, USA). The transfection vector, pNLNgoMIVR-ΔLUC was made from pNLNgoMIVR-ΔEnv.HSA by removing the HSA reporter gene and replacing it with a luciferase reporter gene between the NotI and XhoI restriction sites. To produce the new IN mutant S230N used in this study, the IN open reading frame was removed from pNLNgoMIVR-ΔENV.LUC by digestion with KpnI and SalI, and the resulting fragment was inserted between the KpnI and SalI sites of pBluescript KS+. Using that construct as the wild-type template, we prepared the following HIV-1 IN mutant S230N using the QuikChange II XL site-directed mutagenesis kit (Agilent Technologies, Santa Clara, CA, USA) protocol. The following sense oligonucleotides were used with matching cognate antisense oligonucleotides (not shown) (Integrated DNA Technologies, Coralville, IA, USA) in the mutagenesis: S230N 5′-[…]-3′. The DNA sequence of the IN mutant S230N construct was verified independently by DNA sequence determination. The mutated IN coding sequences from pBluescript KS+ were then subcloned into pNLNgoMIVR-ΔEnv.LUC (between the KpnI and SalI sites) to produce mutant HIV-1 constructs, which were also checked by DNA sequencing. […]. On the day prior to transfection, 293 cells were plated on 100 mm diameter dishes at a density of 1.5 × 10^6 cells per plate. Next, 293 cells were transfected with 16 µg of pNLNgoMIVR^-ΔLUC and 4 µg of pHCMV-g (obtained from Dr. Jane Burns, University of California, San Diego) using the calcium phosphate method. At approximately 6 h after the calcium phosphate precipitate was added, 293 cells were washed twice with phosphate-buffered saline (PBS) and incubated with fresh media for 48 h. The virus-containing supernatants were then harvested, clarified by low-speed centrifugation, filtrated, and diluted for preparation in antiviral infection assays. On the day prior to the screen, HOS cells were seeded in a 96-well luminescence cell culture plate at a density of 4000 cells in 100 µL per well. On the day of the screen for cellular cytotoxicity determination, cells were treated with compounds from a concentration range of 250 µM to 0.05 µM and then incubated at 37 °C for 48 h. On the day of the screen for antiviral activity infection assays, cells were treated with compounds from a concentration range of 5 µM to 0.0001 µM using 11 serial dilutions and then incubated at 37 °C for 3 h. After compound incorporation and activation in the cell, 100 µL of virus-stock (WT or mutant) diluted to achieve a luciferase signal between 0.2 and 1.5 Relative Luciferase Units (RLUs) was added to each well and further incubated at 37 °C for 48 h. Cellular cytotoxicity was measured by using the ATP Lite Luminescence detection system and monitored by adding 50 µL of cell lysis buffer from the Luminescence ATP detection assay to each well followed by mixing at 700 rpm at room temperature for 5 min using a compact thermomixer. After addition of 50 µL of reconstituted Luminescence ATP detection assay reagent to all wells except for the negative control/background wells, the plates were mixed at 700 rpm at room temperature for 5 min using a compact thermomixer, incubated at room temperature for 20 min to allow time for signal development, and finally, cytotoxicity was determined using the microplate reader. Infectivity was measured by using the Steady-lite plus luminescence reporter gene assay system (PerkinElmer, Waltham, MA, USA). […]

Where [2] appears, read: Human immunodeficiency virus 1, HOS, read-out: EC50, antiviral potency, WT IN, VSV-g-pseudotyped HIV-1 luciferase vector with WT IN, HOS cells, 48 h.
[3] abbreviates: 48 h, read-out: CC50, cytotoxic concentration resulting in 50% reduction in the level of ATP.

Regarding `CC(C)CC(C)N1CCn2cc(C(=O)NCc3ccc(F)cc3F)c(=O)c(O)c2C1=O` (stereo not shown) [Compound 7i, N-(2,4-Difluorobenzyl)-9-hydroxy-2-(4-methylpentan-2-yl)-1,8-dioxo-1,3,4,8-tetrahydro-2H-pyrido [1,2-a]pyrazine-7-carboxamide], the melting point was in the range of 190 to 192 °C. Further, in series [1], the “Ratio of the antiviral potencies after and before hydrogenation (WT)” value (from here on “Ratio of the antiviral potencies”) stood at 1.4. For the same compound, the EC50 in series [1] (setting [2]) was found to be 6 ± 1.2 nM. Moreover, the CC50 in “in vitro” (setting [3]) was greater than 250000 nM.
In the case of `COCCCCCCn1ccn2cc(C(=O)NCc3ccc(F)cc3F)c(=O)c(O)c2c1=O` [Compound 6f, N-(2,4-Difluorobenzyl)-9-hydroxy-2-(6-methoxyhexyl)-1,8-dioxo-1,8-dihydro-2H-pyrido [1,2-a]pyrazine-7-carboxamide], the EC50 in series [1] (setting [2]) is 4.8 ± 0.2 nM. Moreover, the CC50 in “in vitro” (setting [3]) is greater than 250000 nM.
With `COCCCn1ccn2cc(C(=O)NCc3ccc(F)cc3F)c(=O)c(O)c2c1=O` [Compound 6g, N-(2,4-Difluorobenzyl)-9-hydroxy-2-(3-methoxypropyl)-1,8-dioxo-1,8-dihydro-2H-pyrido [1,2-a]pyrazine-7-carboxamide], the EC50 in series [1] (setting [2]) was roughly 2 nM. Also, the CC50 in the series “in vitro” (setting [3]) is greater than 250000 nM.
`COCCCCCCN1CCn2cc(C(=O)NCc3ccc(F)cc3F)c(=O)c(O)c2C1=O` [Compound 7f, N-(2,4-Difluorobenzyl)-9-hydroxy-2-(6-methoxyhexyl)-1,8-dioxo-1,3,4,8-tetrahydro-2H-pyrido [1,2-a]pyrazine-7-carboxamide] registered a melting point of 228 to 232 °C. Moreover, the “Ratio of the antiviral potencies” value in series [1] is 0.96. Also, the EC50 in series [1] (setting [2]) is 4.6 ± 0.4 nM. The CC50 in the series “in vitro” (setting [3]) was greater than 250000 nM.
In the case of `O=C(NCc1c(F)cc(F)cc1F)c1cn2c(c(O)c1=O)C(=O)N1[C@H]3CC[C@H](C3)O[C@@H]1C2` [BIC, Bictegravir, reference compound], in series [1] (setting [2]), the EC50 is roughly 2 nM.
Turning to `CC(C)N1CCn2cc(C(=O)NCc3ccc(F)cc3F)c(=O)c(O)c2C1=O` [Compound 7b, N-(2,4-Difluorobenzyl)-9-hydroxy-2-isopropyl-1,8-dioxo-1,3,4,8-tetrahydro-2H-pyrido [1,2-a]pyrazine-7-carboxamide], the “Ratio of the antiviral potencies” value in series [1] was determined as 0.79. In addition, the EC50 in series [1] (setting [2]) was 3 ± 0.1 nM. The CC50 in “in vitro” (running text of b13, read-out: CC50, cytotoxicity) worked out at 167000 nM.
For `C[C@H]1CO[C@@H]2Cn3cc(C(=O)NCc4ccc(F)cc4F)c(=O)c(O)c3C(=O)N12` [CAB, Cabotegravir, reference compound], the EC50 in series [1] (setting [2]) is roughly 2 nM.
As for `CC(C)n1ccn2cc(C(=O)NCc3ccc(F)cc3F)c(=O)c(O)c2c1=O` [Compound 6b, N-(2,4-Difluorobenzyl)-9-hydroxy-2-isopropyl-1,8-dioxo-1,8-dihydro-2H-pyrido [1,2-a]pyrazine-7-carboxamide], the concentration for a half-maximal effect (EC50) in series [1] (setting [2]) was 3.8 ± 0.6 nM. In addition, the CC50 in “in vitro” (setting [3]) is greater than 250000 nM.
`COCCCN1CCn2cc(C(=O)NCc3ccc(F)cc3F)c(=O)c(O)c2C1=O` [Compound 7g, N-(2,4-Difluorobenzyl)-9-hydroxy-2-(3-methoxypropyl)-1,8-dioxo-1,3,4,8-tetrahydro-2H-pyrido [1,2-a]pyrazine-7-carboxamide] registered a melting point of 250 to 252 °C. For the same compound, the “Ratio of the antiviral potencies” value in series [1] was determined as 2.0. In addition, the EC50 in series [1] (setting [2]) came to 4 ± 0.7 nM. Besides, the CC50 in the series “in vitro” (setting [3]) was greater than 250000 nM.
`COCCN1CCn2cc(C(=O)NCc3ccc(F)cc3F)c(=O)c(O)c2C1=O` [Compound 7h, N-(2,4-Difluorobenzyl)-9-hydroxy-2-(2-methoxyethyl)-1,8-dioxo-1,3,4,8-tetrahydro-2H-pyrido [1,2-a]pyrazine-7-carboxamide] showed a melting point of 207 to 210 °C. For the same compound, in series [1], the “Ratio of the antiviral potencies” value amounted to 2.1. In addition, the EC50 in series [1] (setting [2]) stood at 3.9 ± 0.5 nM.
`Cn1ccn2cc(C(=O)NCc3ccc(F)cc3F)c(=O)c(O)c2c1=O` [Compound 6a, N-(2,4-Difluorobenzyl)-9-hydroxy-2-methyl-1,8-dioxo-1,8-dihydro-2H-pyrido [1,2-a]pyrazine-7-carboxamide] had a melting point of 275 to 280 °C. Moreover, in series [1] (setting [2]), the EC50 amounted to 2.7 ± 0.2 nM.
As to `COCCn1ccn2cc(C(=O)NCc3ccc(F)cc3F)c(=O)c(O)c2c1=O` [Compound 6h, N-(2,4-Difluorobenzyl)-9-hydroxy-2-(2-methoxyethyl)-1,8-dioxo-1,8-dihydro-2H-pyrido [1,2-a]pyrazine-7-carboxamide], the EC50 was roughly 2 nM in series [1] (setting [2]) and 1.9 ± 0.4 nM in series [1] (read-out: EC50, antiviral potency, WT IN, VSV-g-pseudotyped HIV-1 luciferase vector with WT IN, HOS cells). Moreover, the CC50 in “in vitro” (setting [3]) is greater than 250000 nM.
